Some results are limits rather than exact numbers.

Data set [1] in a line: physchem. The following applies: buffer, pH 7.4.
Data set [2] can be described thus: in vitro. The following applies: human.
The nature of data set [3]: in vivo. The following applies: rat, iv.
Data set [4] deals with Hepatocyte. Nature of the data set: Intrinsic clearance in rat hepatocytes measured per 10^6 cells. Format: ADME, cell-based.
A short description of data set [5]: Half life in iv dosed dog. Format: ADME, organism-based, Canis lupus familiaris. Conditions: in vivo.
Data set [6] is described as follows: Oral bioavailability in rat. The data set is classed as ADME, organism-based. Conditions: in vivo.
Data set [7] in a line: Oral bioavailability in dog. The data set is classed as ADME, organism-based, Canis lupus familiaris. Conditions: in vivo.

As a reminder, the logD is the decadic logarithm of the distribution of all forms, ionised or not, between an organic phase and buffer at a given pH. Higher therefore signals higher lipophilicity. In general, microsomal CLint refers to the rate of metabolic loss divided by the concentration. A higher microsomal CLint goes with faster metabolism. With `N#Cc1ccccc1C[C@@H](C(=O)O)N1CCC(CN2CCC(Oc3ccc(Cl)c(Cl)c3)CC2)CC1`, in data set [1], the log distribution coefficient (logD) came out at 2.1. The microsomal CLint in data set [2] (microsomes) is 6 µL/min/mg.
As for `N#Cc1cccc(C[C@@H](C(=O)O)N2CCC(CN3CCC(Oc4ccc(Cl)c(Cl)c4)CC3)CC2)c1`, the pH-dependent lipophilicity (logD) in data set [1] was determined as 2.3. In data set [2] (liver microsomes), this compound registered a microsomal CLint of less than 5 µL/min/mg.
As for `N#Cc1ccc(C[C@@H](C(=O)O)N2CCC(CN3CCC(Oc4ccc(Cl)c(Cl)c4)CC3)CC2)cc1`, the logD in data set [1] came out at 2.2.
On to `Cc1ccccc1C[C@@H](C(=O)O)N1CCC(CN2CCC(Oc3ccc(Cl)c(Cl)c3)CC2)CC1`, for which the logD in data set [1] was 2.5. Besides, the microsomal CLint in data set [2] (liver microsomes) is less than 3 µL/min/mg.
In turn, `Cc1cccc(C[C@@H](C(=O)O)N2CCC(CN3CCC(Oc4ccc(Cl)c(Cl)c4)CC3)CC2)c1` came in with a logD in data set [1] of 2.8. Also, the microsomal CLint in data set [2] (liver microsomes) was less than 6 µL/min/mg.
In the same order, the values of `Cc1ccc(C[C@@H](C(=O)O)N2CCC(CN3CCC(Oc4ccc(Cl)c(Cl)c4)CC3)CC2)cc1` are 3 and 14 µL/min/mg.
Taken in the same sequence, the figures for `COc1ccccc1C[C@@H](C(=O)O)N1CCC(CN2CCC(Oc3ccc(Cl)c(Cl)c3)CC2)CC1` were 2.8 and 8 µL/min/mg.
Take `O=C(O)[C@H](Cc1cccc(C(F)(F)F)c1)N1CCC(CN2CCC(Oc3ccc(Cl)c(Cl)c3)CC2)CC1`: in data set [2] (liver microsomes), the microsomal CLint amounted to 7 µL/min/mg.
Take `O=C(O)[C@H](Cc1ccc(F)cc1)N1CCC(CN2CCC(Oc3ccc(Cl)cc3)CC2)CC1`: the logD in data set [1] amounted to 1.9.
Still for that read-out and setting: then `Cc1cc(Cl)ccc1OC1CCN(CC2CCN([C@@H](Cc3ccc(F)cc3)C(=O)O)CC2)CC1`, with 2.5.
As to `Cc1cc(F)ccc1OC1CCN(CC2CCN([C@@H](Cc3ccc(F)cc3)C(=O)O)CC2)CC1`, in data set [2] (liver microsomes), the microsomal CLint was less than 3 µL/min/mg.
The term half-life denotes the time needed for the level to fall by half in the phase considered. High values mean slow loss, low ones fast loss. Turning to `Cc1c(Cl)ccc(OC2CCN(CC3CCN([C@@H](Cc4ccc(F)cc4)C(=O)O)CC3)CC2)c1Cl`, the logD in data set [1] came out at 3.2. In data set [2] (liver microsomes), the microsomal CLint is less than 3 µL/min/mg. This compound also gave a half-life in data set [3] of 0.8 h.
In the case of `Cc1c(OC2CCN(CC3CCN([C@@H](Cc4ccc(F)cc4)C(=O)O)CC3)CC2)ccc(Cl)c1Cl`, in data set [1], the logD turned out to be 3.5. The microsomal CLint in data set [2] (liver microsomes) was less than 3 µL/min/mg. In data set [3], this compound showed a half-life of 10 h. In data set [4], this compound returned a CLH of less than 3 µL/min/1e6 cells.
On to `Cc1c(OC2CCN(CC3CCN([C@@H](Cc4ccc(F)cc4)C(=O)O)CC3)CC2)ccc(C#N)c1Cl`, for which, in data set [1], the pH-dependent lipophilicity (logD) amounted to 2.2. In data set [2] (microsomes), this compound returned an intrinsic clearance (microsomal CLint) of 6 µL/min/mg.
In turn, `Cc1c(OC2CCN(CC3CCN([C@@](C)(Cc4ccc(F)cc4)C(=O)O)CC3)CC2)ccc(Cl)c1Cl` returned a logD in data set [1] of 3.
In general, bioavailability refers to the share of a dose that reaches the circulation, judged against a reference dose that is usually intravenous. High values mean much systemic uptake, low ones little systemic uptake. As for `Cc1cc(Cl)ccc1OC1CCN(CC2CCN([C@@](C)(Cc3ccc(F)cc3)C(=O)O)CC2)CC1`, in data set [1], the logD came to 2.6. The half-life in data set [3] was 8.7 h; in data set [5], 12 h. The results for the bioavailability in data set [6] and in data set [7] were 52% and 83%, respectively.
In data set [1], `Cc1cc(OC2CCN(CC3CCN([C@@](C)(Cc4ccc(F)cc4)C(=O)O)CC3)CC2)ccc1Cl` came in with a logD of 2.1. In addition, in data set [6], the bioavailability came out at 84%.
Taken in the same sequence, the figures for `Cc1cc(F)ccc1OC1CCN(CC2CCN([C@@](C)(Cc3ccc(F)cc3)C(=O)O)CC2)CC1` were 2 and 24%.
By CLint scaled is commonly meant a measure of how fast metabolising enzymes remove a compound, apart from limits set by blood flow. Low readings indicate greater metabolic stability, high ones faster metabolism. With `Cc1ccc(S(=O)(=O)NC(=O)N2CCC(N3CCC(Oc4ccc(Cl)c(Cl)c4)CC3)CC2)cc1`, in data set [2] (liver microsomes), the CLint scaled amounted to 1 mL/min/kg. In addition, in data set [3], the half-life is 2.7 h. For the same compound, in data set [6], the bioavailability was 30%.
On to `O=C(O)[C@H](c1ccccc1)N1CCC(CN2CCC(Oc3ccc(Cl)c(Cl)c3)CC2)CC1`, for which the CLint scaled in data set [2] (microsomes) is less than 3 mL/min/kg.
In data set [2] (microsomes), `O=C(O)[C@@H](c1ccccc1)N1CCC(CN2CCC(Oc3ccc(Cl)c(Cl)c3)CC2)CC1` had a CLint scaled of less than 3 mL/min/kg. The half-life in data set [3] is 4.8 h. In addition, in data set [6], the bioavailability was 5%.
In the case of `O=C(O)c1ccccc1N1CCC(CN2CCC(Oc3ccc(Cl)c(Cl)c3)CC2)CC1`, the logD in data set [1] is 2.8. Besides, in data set [3], the half-life was 4.1 h. Besides, in data set [6], the bioavailability worked out at 58%.
In data set [1], `O=C(O)c1cccc(N2CCC(CN3CCC(Oc4ccc(Cl)c(Cl)c4)CC3)CC2)c1` showed a logD of 2.2.
Regarding `O=C(O)c1ccc(N2CCC(CN3CCC(Oc4ccc(Cl)c(Cl)c4)CC3)CC2)cc1`, the logD in data set [1] was determined as 2.3.
On the same count and under the same terms, then `O=C(O)Cc1cccc(N2CCC(CN3CCC(Oc4ccc(Cl)c(Cl)c4)CC3)CC2)c1`, with 1.6; and `O=C(O)Cc1ccc(N2CCC(CN3CCC(Oc4ccc(Cl)c(Cl)c4)CC3)CC2)cc1`, with 1.8; and `O=C(O)COc1ccccc1N1CCC(CN2CCC(Oc3ccc(Cl)c(Cl)c3)CC2)CC1`, with 2.
On the same count and under the same terms, then `O=C(O)COc1cccc(N2CCC(CN3CCC(Oc4ccc(Cl)c(Cl)c4)CC3)CC2)c1`, with 2; and `O=C(O)c1ccc(CN2CCC(CN3CCC(Oc4ccc(Cl)c(Cl)c4)CC3)CC2)cc1`, with 1.1.
Same read-out and setting: then `O=C(O)c1cccnc1N1CCC(CN2CCC(Oc3ccc(Cl)c(Cl)c3)CC2)CC1`, with 1.7.
Compound `O=C(O)[C@H](Cc1ccccc1)N1CCC(CN2CCC(Oc3ccc(Cl)c(Cl)c3)CC2)CC1` returned a log distribution coefficient (logD) in data set [1] of 2.5. This compound also gave a microsomal CLint in data set [2] (liver microsomes) of less than 3 µL/min/mg. The half-life in data set [3] was 12 h. In data set [6], the bioavailability turned out to be 62%.
`O=C(O)[C@@H](Cc1ccccc1)N1CCC(CN2CCC(Oc3ccc(Cl)c(Cl)c3)CC2)CC1` yielded a pH-dependent lipophilicity (logD) in data set [1] of 2.5. For the same compound, the microsomal CLint in data set [2] (liver microsomes) was less than 3 µL/min/mg.
Take `O=C(O)[C@H](Cc1ccccc1Cl)N1CCC(CN2CCC(Oc3ccc(Cl)c(Cl)c3)CC2)CC1`: in data set [2] (liver microsomes), the intrinsic clearance (microsomal CLint) is less than 5 µL/min/mg.
`O=C(O)[C@H](Cc1ccc(Cl)cc1)N1CCC(CN2CCC(Oc3ccc(Cl)c(Cl)c3)CC2)CC1`: the logD in data set [1] was 2.9. The same compound registered a microsomal CLint in data set [2] (liver microsomes) of less than 3 µL/min/mg.
`O=C(O)[C@H](Cc1ccccc1F)N1CCC(CN2CCC(Oc3ccc(Cl)c(Cl)c3)CC2)CC1` had a logD in data set [1] of 2.6.
Still for that read-out and setting: then `O=C(O)[C@H](Cc1cccc(F)c1)N1CCC(CN2CCC(Oc3ccc(Cl)c(Cl)c3)CC2)CC1`, with 2.7.
`O=C(O)[C@H](Cc1ccc(F)cc1)N1CCC(CN2CCC(Oc3ccc(Cl)c(Cl)c3)CC2)CC1` returned a logD in data set [1] of 2.6. For the same compound, the microsomal CLint in data set [2] (liver microsomes) was determined as 4 µL/min/mg.
`O=C(O)C(c1ccccc1)N1CCCC(CN2CCC(Oc3ccc(Cl)c(Cl)c3)CC2)C1` (mixture of isomers) gave a CLint scaled in data set [2] (liver microsomes) of less than 3 mL/min/kg.
In the case of `O=C(O)C(c1ccccc1)N1CCO[C@H](CN2CCC(Oc3ccc(Cl)c(Cl)c3)CC2)C1` (mixture of isomers), the bioavailability in data set [6] is 36%.
Regarding `O=C(O)C(c1ccccc1)N1CCC(N2CCC(Oc3ccc(Cl)c(Cl)c3)CC2)CC1` (racemic), the CLint scaled in data set [2] (liver microsomes) worked out at 6 mL/min/kg. This compound also showed a half-life in data set [3] of 2.4 h. In data set [6], this compound returned a bioavailability of 13%.
In turn, `O=C(O)C(c1ccccc1)N1CCC(CN2CCC(Oc3ccc(Cl)c(Cl)c3)CC2)CC1` (racemic) had a CLint scaled in data set [2] (microsomes) of less than 3 mL/min/kg.

The values are drawn from ChEMBL document CHEMBL2157884, “Scaffold-hopping with zwitterionic CCR3 antagonists: identification and optimisation of a series with good potency and pharmacokinetics leading to the discovery of AZ12436092” (Bioorg Med Chem Lett, 2012).
